Assay results published in ChEMBL document CHEMBL4321832 (J Med Chem, 2019).

Experiments:
[1] = biological target: T1, Lanosterol 14-alpha demethylase (Homo sapiens, UniProt Q16850); test: Binding affinity to recombinant full length human CYP51 expressed in Escherichia coli incubated for 30 sec using [3H] labelled substrate by HPLC analysis
T1 sequence (Q16850 whole entry): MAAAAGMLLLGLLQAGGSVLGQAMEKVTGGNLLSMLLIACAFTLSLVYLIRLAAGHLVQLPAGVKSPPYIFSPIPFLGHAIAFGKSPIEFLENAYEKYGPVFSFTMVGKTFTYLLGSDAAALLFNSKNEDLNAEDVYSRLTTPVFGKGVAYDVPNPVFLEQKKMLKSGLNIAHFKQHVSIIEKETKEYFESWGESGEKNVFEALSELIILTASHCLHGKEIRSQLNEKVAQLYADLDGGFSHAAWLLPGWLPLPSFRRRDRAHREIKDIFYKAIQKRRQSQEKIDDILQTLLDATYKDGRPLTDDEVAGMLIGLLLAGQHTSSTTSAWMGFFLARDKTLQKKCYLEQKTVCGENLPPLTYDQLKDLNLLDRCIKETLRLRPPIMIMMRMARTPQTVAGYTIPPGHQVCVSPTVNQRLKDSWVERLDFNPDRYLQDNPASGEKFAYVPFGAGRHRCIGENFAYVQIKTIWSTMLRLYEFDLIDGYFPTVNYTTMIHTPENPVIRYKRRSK

A549 = test: Antiproliferative activity against human A549 cells assessed as reduction in cell viability incubated for 24 hrs by BrdU based ELISA; format: functional; conditions: A549, 24 h
[2] = Lipophilicity, logP of compound; format: physicochemical; conditions: octanol/water
[3] = biological target: T1, Lanosterol 14-alpha demethylase; test: Inhibition of recombinant full length human CYP51 expressed in Escherichia coli incubated for 1 min using [3H] lanosterol as substrate by HPLC analysis
MCF7 = test: Antiproliferative activity against human MCF7 cells assessed as reduction in cell viability incubated for 24 hrs by BrdU based ELISA; format: functional; conditions: MCF7, 24 h
[4] = biological target: T1, Lanosterol 14-alpha demethylase; test: Inhibition of recombinant full length human CYP51 expressed in Escherichia coli incubated for 1 hr using [3H] lanosterol as substrate by HPLC analysis
MDA-MB-436 = test: Antiproliferative activity against human MDA-MB-436 cells assessed as reduction in cell viability incubated for 24 hrs by BrdU based ELISA; format: functional; conditions: MDA-MB-436, 24 h
[5] = biological target: T2, CYP51 (lanosterol 14-alpha demethylase) (Homo sapiens, UniProt Q16850); test: Inhibition of recombinant full length human CYP51 expressed in Escherichia coli at inhibitor/enzyme ratio 25/1 incubated for 1 hr using [3H] lanosterol as substrate by HPLC analysis relative to control; conditions: probe [3H] lanosterol
T2 sequence (Q16850 whole entry): T1 sequence (Q16850 whole entry)

[6] = biological target: T2, CYP51 (lanosterol 14-alpha demethylase); test: Inhibition of recombinant full length human CYP51 expressed in Escherichia coli at inhibitor/enzyme ratio 50/1 incubated for 1 hr using [3H] lanosterol as substrate by HPLC analysis relative to control; design: concentration or dose not given beside the values; conditions: probe [3H] lanosterol
A-431 = test: Antiproliferative activity against human A431 cells assessed as reduction in cell viability incubated for 24 hrs by BrdU based ELISA; format: functional; conditions: A-431, 24 h
[7] = Inhibition of human CYP51 T314I mutant expressed in Escherichia coli incubated for 1 hr using [3H] lanosterol as substrate by HPLC analysis

Row | Structure (SMILES) | Kd [1] [µM] | logP ([2]; read-out: logP) | IC50 [3] [µM] | IC50 [4] [µM] | inhibition at 1 h [5] [%] | inhibition at 1 h [6] [%] | logP [2] | IC50 [7] [µM] | EC50 (A549) [µM] | EC50 (MCF7) [µM] | EC50 (MDA-MB-436) [µM] | EC50 (A-431) [µM]
1 | O=C(N[C@@H](Cn1ccnc1)c1ccc(-c2ccc(F)cc2)cc1F)c1ccc(-c2nnc(-c3ccccc3)o2)cc1 | 0.09 | 5.4 | < 0.5 | 24.4 | 33 | 64 | – | – | 10 to 30 | 10 to 30 | 10 to 30 | 10 to 30
2 | O=C(N[C@@H](Cn1ccnc1)c1ccc(-c2ccc(F)cc2)cc1-c1ccccc1)c1ccc(-c2nnc(-c3ccccc3)o2)cc1 | – | 5.3 | 1.5 | > 25 | 0 | 41 | – | – | – | – | – | –
3 | O=C(N[C@@H](Cn1ccnc1)c1ccc(-c2ccc(F)cc2)cc1Cl)c1ccc(-c2nnc(-c3cc(-c4ccccn4)ccc3F)o2)cc1 | – | 6.8 | – | – | – | 93 | – | – | – | – | – | –
4 | COc1ccc(-c2cc(-c3ccc(F)cc3)ccc2[C@H](Cn2ccnc2)NC(=O)c2ccc(-c3nnc(-c4ccccc4)o3)cc2)cc1 | – | 5.8 | 12 | > 25 | 0 | 0 | – | – | – | – | – | –
5 | O=C(N[C@@H](Cn1ccnc1)c1ccc(-c2ccc(F)cc2)c2ccccc12)c1ccc(-c2nnc(-c3ccccc3)o2)cc1 | – | 5.8 | 3 | > 25 | 0 | 1 | – | – | – | – | – | –

Further lines, with some results ahead:

Row | Kd [1] [µM] | logP ([2]; read-out: logP) | IC50 [3] [µM] | IC50 [4] [µM] | inhibition at 1 h [5] [%] | inhibition at 1 h [6] [%] | logP [2] | IC50 [7] [µM] | Structure (SMILES) | EC50 (A549) [µM] | EC50 (MCF7) [µM] | EC50 (MDA-MB-436) [µM] | EC50 (A-431) [µM]
6 | – | – | < 0.5 | 5.9 | 73 | 91 | 6.9 | 2.1 | O=C(N[C@@H](Cn1ccnc1)c1ccc(-c2ccc(F)cc2)cc1Cl)c1ccc(-c2nnc(-c3ccccc3)o2)cc1 | – | – | – | –
7 | 0.15 | 6.8 | < 0.5 | < 1 | 95 | 96 | – | – | O=C(N[C@@H](Cn1ccnc1)c1ccc(-c2ccc(F)cc2)cc1Cl)c1ccc(-c2nnc(-c3cc(F)cc(-c4ccccn4)c3)o2)cc1 | – | – | – | –
8 | 0.13 | 5.4 | < 0.5 | 3.6 | 82 | 89 | – | – | CS(=O)(=O)c1cc(Br)cc(-c2nnc(-c3ccc(C(=O)N[C@@H](Cn4ccnc4)c4ccc(-c5ccc(F)cc5)cc4Cl)cc3)o2)c1 | – | – | – | –
9 | 0.47 | 7.7 | < 0.5 | 15 | 25 | 73 | – | – | O=C(N[C@@H](Cn1ccnc1)c1ccc(-c2ccc(F)cc2)cc1Cl)c1ccc(-c2nnc(-c3cc(Br)cc4ccccc34)o2)cc1 | – | – | – | –
10 | – | 5.8 | 5.2 | > 25 | 0 | 8 | – | – | O=C(N[C@@H](Cn1ccnc1)c1ccc(-c2ccc(F)cc2)cc1-c1ccco1)c1ccc(-c2nnc(-c3ccccc3)o2)cc1 | – | – | – | –
11 | 0.02 | 5.3 | < 0.5 | 4.4 | 82 | 90 | – | – | CS(=O)(=O)c1cc(-c2ccccn2)cc(-c2nnc(-c3ccc(C(=O)N[C@@H](Cn4ccnc4)c4ccc(-c5ccc(F)cc5)cc4Cl)cc3)o2)c1 | – | – | – | –
12 | 0.09 | 6.3 | < 0.5 | < 1 | 98 | 98 | – | – | O=C(N[C@@H](Cn1ccnc1)c1ccc(-c2ccc(F)cc2)cc1Cl)c1ccc(-c2nnc(-c3cc(F)cc(-c4ncncc4F)c3)o2)cc1 | – | – | – | –
